Measured values published in ChEMBL document CHEMBL1201862, “PubChem BioAssay data set” (2004).
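A five-concentration, 48-hour dose response in 96-well plates underlies each endpoint, interpolated linearly between surrounding concentrations. The concentration for 50% growth inhibition is given as GI50.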 The source made the active and inactive calls. Rule as the data show it: active = GI50 up to about 1.1 µM and inactive = higher.

Experiments:
Experiment in all cases: NCI anticancer screen, dose series, 48 h
NCI-H522 = system: NCI-H522
T47D = system: T47D
SW-620 = system: SW-620
PC-3 = system: PC-3
A498 = system: A498
UACC-62 = system: UACC-62
SNB-75 = system: SNB-75
UO-31 = system: UO-31
OVCAR-8 = system: OVCAR-8
M14 = system: M14
SNB-19 = system: SNB-19
ACHN = system: ACHN
KM12 = system: KM12
MOLT-4 = system: MOLT-4
786-0 = system: 786-0
HCT-116 = system: HCT-116
TK-10 = system: TK-10
HOP-92 = system: HOP-92
RXF 393 = system: RXF 393
SR = system: SR

SMILES	GI50 (NCI-H522)	GI50 (T47D)	GI50 (SW-620)	GI50 (PC-3)	GI50 (A498)	GI50 (UACC-62)	GI50 (SNB-75)	GI50 (UO-31)	GI50 (OVCAR-8)	GI50 (M14)	GI50 (SNB-19)	GI50 (ACHN)	GI50 (KM12)	GI50 (MOLT-4)	GI50 (786-0)	GI50 (HCT-116)	GI50 (TK-10)	GI50 (HOP-92)	GI50 (RXF 393)	GI50 (SR)
Cc1cn(CCCCCCC2=NCCCN2)c(=O)[nH]c1=O	> 100 µM (inactive)	> 100 µM (inactive)	> 100 µM (inactive)	> 100 µM (inactive)	> 100 µM (inactive)	> 100 µM (inactive)	> 100 µM (inactive)	> 100 µM (inactive)	> 100 µM (inactive)	> 100 µM (inactive)	> 100 µM (inactive)	> 100 µM (inactive)	> 100 µM (inactive)	> 100 µM (inactive)	> 100 µM (inactive)	> 100 µM (inactive)	> 100 µM (inactive)	> 100 µM (inactive)	> 100 µM (inactive)	
C/C(=N\NC(=S)N1CCN(C)CC1)c1nc2cccnc2[nH]1	> 100 µM (inactive)	52.1 µM (inactive)	> 100 µM (inactive)	> 100 µM (inactive)	> 100 µM (inactive)	> 100 µM (inactive)	> 100 µM (inactive)	32 µM (inactive)	> 100 µM (inactive)	> 100 µM (inactive)	> 100 µM (inactive)	> 100 µM (inactive)	> 100 µM (inactive)	> 100 µM (inactive)	> 100 µM (inactive)		54.7 µM (inactive)	> 100 µM (inactive)		
COc1cc2c(cc1OS(C)(=O)=O)N=C[C@@H]1CCCN1C2=O	> 100 µM (inactive)	> 100 µM (inactive)	> 100 µM (inactive)		> 100 µM (inactive)	> 100 µM (inactive)	> 100 µM (inactive)	> 100 µM (inactive)	> 100 µM (inactive)	> 100 µM (inactive)	> 100 µM (inactive)	> 100 µM (inactive)	> 100 µM (inactive)	> 100 µM (inactive)	> 100 µM (inactive)	> 100 µM (inactive)	> 100 µM (inactive)	> 100 µM (inactive)	> 100 µM (inactive)	> 100 µM (inactive)
O=C1c2ccccc2-c2c1c(-c1cccc(Br)c1)nc1ccc3ccccc3c21		> 100 µM (inactive)	> 100 µM (inactive)	> 100 µM (inactive)	> 100 µM (inactive)	> 100 µM (inactive)	> 100 µM (inactive)	> 100 µM (inactive)	> 100 µM (inactive)	> 100 µM (inactive)	> 100 µM (inactive)	> 100 µM (inactive)	> 100 µM (inactive)	> 100 µM (inactive)	> 100 µM (inactive)	> 100 µM (inactive)			> 100 µM (inactive)	
C=C1CCCC2[C@](C)(CC3=C(Cl)C(=O)C=C(OC)C3=O)C(C)CC[C@]12C (stereo partly drawn)	1.16 µM (inactive)		3.02 µM (inactive)	1.58 µM (inactive)	8.49 µM (inactive)	6.4 µM (inactive)		1.76 µM (inactive)	2.93 µM (inactive)	4.33 µM (inactive)	7.21 µM (inactive)	4.66 µM (inactive)	2.26 µM (inactive)	0.745 µM (active)	1.85 µM (inactive)	1.75 µM (inactive)	4.34 µM (inactive)	6.12 µM (inactive)	5.42 µM (inactive)	1.47 µM (inactive)
Cc1cn(C2CC(/[N+]([O-])=N\Nc3ccc([N+](=O)[O-])cc3)C(CO)O2)c(=O)[nH]c1=O (stereo not drawn)	> 100 µM (inactive)		> 100 µM (inactive)	> 100 µM (inactive)	> 100 µM (inactive)	> 100 µM (inactive)		> 100 µM (inactive)	> 100 µM (inactive)	> 100 µM (inactive)	> 100 µM (inactive)	> 100 µM (inactive)	> 100 µM (inactive)	22.2 µM (inactive)	> 100 µM (inactive)	> 100 µM (inactive)	> 100 µM (inactive)	> 100 µM (inactive)	> 100 µM (inactive)	4.62 µM (inactive)
COc1ccc(-[n+]2nc(S(=O)(=O)O)c(/C=C/c3ccc(N(C)C)cc3)cc2C#N)cc1	> 100 µM (inactive)	> 100 µM (inactive)	> 100 µM (inactive)	> 100 µM (inactive)	> 100 µM (inactive)	> 100 µM (inactive)	> 100 µM (inactive)	> 100 µM (inactive)	> 100 µM (inactive)	> 100 µM (inactive)	> 100 µM (inactive)	> 100 µM (inactive)	> 100 µM (inactive)	> 100 µM (inactive)	> 100 µM (inactive)	> 100 µM (inactive)	> 100 µM (inactive)	> 100 µM (inactive)		
C=CCNC(=S)N/C=C(/C(C)=O)C(=O)Nc1ccccc1C	> 100 µM (inactive)	> 100 µM (inactive)	> 100 µM (inactive)	> 100 µM (inactive)		> 100 µM (inactive)		> 100 µM (inactive)	> 100 µM (inactive)	> 100 µM (inactive)	> 100 µM (inactive)	> 100 µM (inactive)	> 100 µM (inactive)	> 100 µM (inactive)	> 100 µM (inactive)	> 100 µM (inactive)	> 100 µM (inactive)		> 100 µM (inactive)	
COc1ccc(-c2nc(SCC(=O)N/N=C/c3ccc(O)c(OC)c3)[nH]c2-c2ccc(OC)cc2)cc1	19.2 µM (inactive)	22.7 µM (inactive)	30.8 µM (inactive)	27.1 µM (inactive)	18.8 µM (inactive)	14.1 µM (inactive)	47.5 µM (inactive)	34.7 µM (inactive)	28.9 µM (inactive)	22.9 µM (inactive)	41.1 µM (inactive)	18.2 µM (inactive)	33.3 µM (inactive)		19.8 µM (inactive)	17.9 µM (inactive)	41 µM (inactive)	23.7 µM (inactive)	18.6 µM (inactive)	
CCOC(=O)c1ccc2c(c1)Cc1cc([N+](=O)[O-])ccc1-2		87.1 µM (inactive)	65.2 µM (inactive)	61.9 µM (inactive)	28.4 µM (inactive)	50 µM (inactive)		30.4 µM (inactive)	42 µM (inactive)	97.1 µM (inactive)	> 100 µM (inactive)	29.9 µM (inactive)	69.3 µM (inactive)	20.1 µM (inactive)	86.5 µM (inactive)	59.4 µM (inactive)	24.4 µM (inactive)	26.1 µM (inactive)	22.9 µM (inactive)	
CS(=O)(=O)c1nc(-c2cc3c(c(S(C)(=O)=O)n2)CCCC3)cc2c1CCCCC2	21.1 µM (inactive)		> 100 µM (inactive)	> 100 µM (inactive)		> 100 µM (inactive)	22.4 µM (inactive)	0.0206 µM (active)	32.5 µM (inactive)	> 100 µM (inactive)	> 100 µM (inactive)	> 100 µM (inactive)	> 100 µM (inactive)		> 100 µM (inactive)	> 100 µM (inactive)	> 100 µM (inactive)		48.6 µM (inactive)	
Cc1csc(-n2c(C)nc3cc(Cl)ccc3c2=O)n1	22.2 µM (inactive)		> 100 µM (inactive)	> 100 µM (inactive)	> 100 µM (inactive)	> 100 µM (inactive)	> 100 µM (inactive)	58.2 µM (inactive)	> 100 µM (inactive)	> 100 µM (inactive)	> 100 µM (inactive)	> 100 µM (inactive)	> 100 µM (inactive)	46.7 µM (inactive)	> 100 µM (inactive)	> 100 µM (inactive)	> 100 µM (inactive)	10.4 µM (inactive)	> 100 µM (inactive)	> 100 µM (inactive)
[O-][S+](c1ccc(Cl)cc1)c1ccccc1C1=NCCN1 (stereo not drawn)	> 100 µM (inactive)	> 100 µM (inactive)	> 100 µM (inactive)	> 100 µM (inactive)		> 100 µM (inactive)	> 100 µM (inactive)	> 100 µM (inactive)	> 100 µM (inactive)	> 100 µM (inactive)	> 100 µM (inactive)	> 100 µM (inactive)	> 100 µM (inactive)	> 100 µM (inactive)	> 100 µM (inactive)	> 100 µM (inactive)	> 100 µM (inactive)		> 100 µM (inactive)	
C/C(=N/O)c1cccc(Nc2nc3ccc(Cl)cc3c3[nH]c4ccccc4c23)c1	1.12 µM (active)	1.58 µM (inactive)	1.06 µM (active)	1.79 µM (inactive)		1.83 µM (inactive)	< 0.01 µM (active)	2.33 µM (inactive)	1.93 µM (inactive)	1.82 µM (inactive)	2.88 µM (inactive)	0.929 µM (active)	1.38 µM (inactive)	0.242 µM (active)	1.36 µM (inactive)	0.205 µM (active)	2.32 µM (inactive)		1.67 µM (inactive)	1.24 µM (inactive)
C/C=C1\C(=O)OC2CCN3CCC(COC(=O)C(C)(O)C(C)C1O)C23 (stereo not drawn)	> 100 µM (inactive)	> 100 µM (inactive)	> 100 µM (inactive)	> 100 µM (inactive)	> 100 µM (inactive)	> 100 µM (inactive)	> 100 µM (inactive)	> 100 µM (inactive)	> 100 µM (inactive)	> 100 µM (inactive)	> 100 µM (inactive)	> 100 µM (inactive)	> 100 µM (inactive)	> 100 µM (inactive)	> 100 µM (inactive)	> 100 µM (inactive)	> 100 µM (inactive)	> 100 µM (inactive)		
